ChEMBL document CHEMBL1201862, “PubChem BioAssay data set” (2004)
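Values below derive from 48-hour exposures of cells grown in 96-well plates, with endpoints linearly interpolated between the two concentrations bracketing the appropriate inhibition level. GI50: concentration for 50% inhibition of growth.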 Active and inactive are the calls of the source. Rule as the data show it: active = GI50 up to about 1.1 µM and inactive = higher.

Experiments:
Assay in all cases: NCI tumour cell line growth inhibition, 48 h
NCI-H226 = test system: NCI-H226
OVCAR-5 = test system: OVCAR-5
SN12C = test system: SN12C
NCI/ADR-RES = test system: NCI/ADR-RES
U-251 = test system: U-251
OVCAR-4 = test system: OVCAR-4
M14 = test system: M14
OVCAR-3 = test system: OVCAR-3
SK-MEL-2 = test system: SK-MEL-2
MDA-N = test system: MDA-N
CCRF-CEM = test system: CCRF-CEM
COLO 205 = test system: COLO 205
SF-539 = test system: SF-539
K562 = test system: K562
SR = test system: SR
IGROV-1 = test system: IGROV-1
HCC 2998 = test system: HCC 2998
DU-145 = test system: DU-145
HOP-62 = test system: HOP-62
RPMI-8226 = test system: RPMI-8226

SMILES | GI50 (NCI-H226) | GI50 (OVCAR-5) | GI50 (SN12C) | GI50 (NCI/ADR-RES) | GI50 (U-251) | GI50 (OVCAR-4) | GI50 (M14) | GI50 (OVCAR-3) | GI50 (SK-MEL-2) | GI50 (MDA-N) | GI50 (CCRF-CEM) | GI50 (COLO 205) | GI50 (SF-539) | GI50 (K562) | GI50 (SR) | GI50 (IGROV-1) | GI50 (HCC 2998) | GI50 (DU-145) | GI50 (HOP-62) | GI50 (RPMI-8226)
CC(=O)Nc1nc(NC(C)=O)c2nc(CO)[nH]c2n1 | > 100 µM (inactive) | > 100 µM (inactive) | > 100 µM (inactive) | > 100 µM (inactive) | > 100 µM (inactive) | > 100 µM (inactive) | > 100 µM (inactive) | > 100 µM (inactive) | > 100 µM (inactive) | > 100 µM (inactive) | > 100 µM (inactive) | > 100 µM (inactive) | > 100 µM (inactive) | > 100 µM (inactive) | > 100 µM (inactive) | > 100 µM (inactive) | > 100 µM (inactive) | > 100 µM (inactive) | > 100 µM (inactive) | –
CC(=O)OCOC(=O)CN(CC(=O)OCOC(C)=O)Cc1cc2c(cc1OC(C)=O)Oc1cc(OC(C)=O)c(CN(CC(=O)OCOC(C)=O)CC(=O)OCOC(C)=O)cc1C21OC(=O)c2ccccc21 | 1.34 µM (inactive) | 2.94 µM (inactive) | 1.13 µM (inactive) | 11 µM (inactive) | 1.87 µM (inactive) | 0.998 µM (active) | 1.16 µM (inactive) | 0.92 µM (active) | 0.369 µM (active) | 0.309 µM (active) | 0.11 µM (active) | 0.594 µM (active) | 0.255 µM (active) | 0.122 µM (active) | 0.016 µM (active) | 0.277 µM (active) | – | 1.47 µM (inactive) | 1.1 µM (active) | –
CC12CCCC3(CC(=O)C(C)(C)C3C(=O)C1)C2 (stereo not drawn) | > 100 µM (inactive) | > 100 µM (inactive) | > 100 µM (inactive) | > 100 µM (inactive) | > 100 µM (inactive) | > 100 µM (inactive) | > 100 µM (inactive) | > 100 µM (inactive) | > 100 µM (inactive) | > 100 µM (inactive) | > 100 µM (inactive) | > 100 µM (inactive) | – | > 100 µM (inactive) | > 100 µM (inactive) | > 100 µM (inactive) | – | > 100 µM (inactive) | > 100 µM (inactive) | > 100 µM (inactive)
Cc1cccc(C)c1NC(=O)C(Cc1c[nH]c2ccccc12)NC(=O)OCc1ccccc1 (stereo not drawn) | – | 18.8 µM (inactive) | 21.5 µM (inactive) | 14.4 µM (inactive) | 19.5 µM (inactive) | 8.04 µM (inactive) | 11.5 µM (inactive) | 22.9 µM (inactive) | 16.9 µM (inactive) | 15.7 µM (inactive) | 17.8 µM (inactive) | 13.2 µM (inactive) | 20.2 µM (inactive) | 30.2 µM (inactive) | 22.5 µM (inactive) | 19.6 µM (inactive) | – | 17 µM (inactive) | 41 µM (inactive) | 15.6 µM (inactive)
N#C/C(=C1\N=C(c2ccccc2O)Oc2ccccc21)c1ccc([N+](=O)[O-])cc1 | > 100 µM (inactive) | > 100 µM (inactive) | > 100 µM (inactive) | > 100 µM (inactive) | 71.9 µM (inactive) | 41.9 µM (inactive) | > 100 µM (inactive) | > 100 µM (inactive) | > 100 µM (inactive) | > 100 µM (inactive) | > 100 µM (inactive) | > 100 µM (inactive) | 66.5 µM (inactive) | > 100 µM (inactive) | – | 88.9 µM (inactive) | > 100 µM (inactive) | > 100 µM (inactive) | 33.8 µM (inactive) | > 100 µM (inactive)
CC(c1ccccc1)N1CCN(C(C)c2ccccc2)CC1 (stereo not drawn) | > 100 µM (inactive) | > 100 µM (inactive) | > 100 µM (inactive) | > 100 µM (inactive) | > 100 µM (inactive) | > 100 µM (inactive) | 22.8 µM (inactive) | 35.4 µM (inactive) | 35.2 µM (inactive) | 45.6 µM (inactive) | – | – | – | 27.7 µM (inactive) | 35.8 µM (inactive) | > 100 µM (inactive) | 20.1 µM (inactive) | > 100 µM (inactive) | > 100 µM (inactive) | 26.1 µM (inactive)
CCC(=O)N1C(=O)C(CC)(CC)C(=O)N1C(=O)CC | > 100 µM (inactive) | > 100 µM (inactive) | > 100 µM (inactive) | > 100 µM (inactive) | > 100 µM (inactive) | > 100 µM (inactive) | > 100 µM (inactive) | > 100 µM (inactive) | > 100 µM (inactive) | > 100 µM (inactive) | > 100 µM (inactive) | > 100 µM (inactive) | – | > 100 µM (inactive) | > 100 µM (inactive) | > 100 µM (inactive) | > 100 µM (inactive) | > 100 µM (inactive) | > 100 µM (inactive) | > 100 µM (inactive)
